Reference: patent US9617276B2, “Compounds and methods for treating AIDS and HIV infections” (priority 2009, dated 2017)
Several values for one entry are separate records, joined by “and”; a condition that tells them apart may be missing. Identical values can stand only once. Like-named read-outs stand apart in the source and are kept apart here.

Experiments:
[1] = test system: HIV-1LAI; assay: drug susceptibility, MT-2 cells, MTT assay, HIV-1LAI; format: cell-based; settings: for EC50: Human immunodeficiency virus 1, MT2, read-out: EC50 (μM) for HIV-1LAI; for Selectivity Index: ratio of CC50 to EC50 against HIV-1LAI
Experimental: (§1) All assays were performed in duplicate or triplicate. […] All assays were performed in duplicate or triplicate.
(§2) Each selectivity index denotes a ratio of CC50 to EC50 against HIV-1LAI N.D., not done.

[2] = test system: HIV-2EHO; assay: drug susceptibility, MT-2 cells, MTT assay, HIV-2EHO; format: cell-based; settings: Human immunodeficiency virus 2, MT2, read-out: EC50 (μM) for HIV-2EHO
Experimental: as §1, §2

[3] = test system: HIV-2ROD; assay: drug susceptibility, MT-2 cells, MTT assay, HIV-2ROD; format: cell-based; settings: Human immunodeficiency virus 2, MT2, read-out: EC50 (μM) for HIV-2ROD
Experimental: as §1, §2

[4] = cytotoxicity CC50; format: cell-based, Human; settings: human
[5] = test system: HIV-1NL4-3; assay: p24 Gag inhibition in MT-4 cells, HIV-1NL4-3; format: cell-based
Experimental: as §1

[6] = test system: HIV-1ERS104pre (wild-type); assay: p24 Gag inhibition in PHA-PBMCs, HIV-1ERS104pre; format: cell-based; settings: mean ± 1 SD
Experimental: (§3) The susceptibility of HIV-1LAI and primary HIV-1 isolates to various drugs were determined as described previously (Koh et al. 2003 Antimicrob Agents Chemother 47:3123-9). Briefly, MT-2 cells (2×10^4/ml) were exposed to 100 50% tissue culture infectious doses (TCID50S) of HIV-1LAI, in the presence or absence of various concentrations of drugs in 96-well microculture plates and were incubated at 37° C. for 7 days. After 100 μl of the medium was removed from each well, 3-(4,5-dimetylthiazol-2-yl)-2,5-diphenyltetrazolium bromide (MTT) solution (10 μl, 7.5 mg/ml in phosphate-buffered saline) was added to each well in the plate, followed by incubation at 37° C. for 3 h. […] All assays were performed in duplicate or triplicate. To determine the susceptibility of primary HIV-1 isolates to drugs, phytohemagglutinin-activated peripheral blood mononuclear cells (PHA-PBMCs; 106/ml) were exposed to 50 TCID50S of each. The target cells were exposed to HIV-1104pre or drug-resistant HIV-1 in the presence or absence of various concentrations of drugs and were incubated for 7 days. Upon the conclusion of the culture, the amounts of p24 Gag protein in the supernatants were determined using a fully automated chemiluminescent enzyme immunoassay system (Lumipulse F; Fujirebio Inc., Tokyo, Japan) (Maeda et al. 2001 J Biol Chem 276:35194-200). To determine the drug susceptibility of certain laboratory HIV-1 strains, MT-4 cells were used as target cells. In brief, MT-4 cells (10^5/ml) were exposed to 100 TCID50S of drug-resistant HIV-1 strains in the presence or absence of various concentrations of drugs and on day 7 of culture, the supernatant was harvested and the amounts of p24 Gag protein were determined. […] All assays were performed in duplicate or triplicate.
(§4) These clinical strains contained 9 to 14 amino acid substitutions in the protease-encoding region, which have reportedly been associated with HIV-1 resistance to various PIs.
(§5) Amino acid substitutions identified in the protease-encoding region compared to the consensus type B sequence cited from the Los Alamos database include L63P in HIV-1ERS104pre; L10I, K14R, L33I, M36I, M46I, F53I, K55R, I62V, L63P, A71V, G73S, V82A, L90M, and I93L in HIV-1MDR/B; L10I, I15V, K20R, L24I, M36I, M46L, I54V, I62V, L63P, K70Q, V82A, and L89M in HIV-1MDR/C; L10I, V11I, T12E, I15V, L19I, R41K, M46L, L63P, A71T, V82A, and L90M in HIV-1MDR/G; L10I, K14R, R41K, M46L, I54V, L63P, A71V, V82A, L90M, I93L in HIV-1MDR/TM; L10I, K43T, M46L, I54V, L63P, A71V, V82A, L90M, and Q92K in HIV-1MDR/MM; L10I, L24I, I33F, E35D, M36I, N37S, M46L, I54V, R57K, I62V, L63P, A71V, G73S, and V82A in HIV-1MDR/JSL. HIV-1ERS104pre served as a source of wild-type HIV-1. EC50s were determined by using PHA-PBMs as target cells, and inhibition of p24 Gag protein production by each drug was used as an end point. Numbers in parentheses represent n-fold changes of EC50s for each isolate compared to EC50s for wild-type HIV-1ERS104pre.

[7] = test system: HIV-1MDR/B; format: cell-based; settings: for EC50 (μM), HIV-1MDR/B (SI): PHA-PBMCs, p24 Gag; for n-fold change of EC50, HIV-1MDR/B: compared to wild-type HIV-1ERS104pre
Experimental: as §3, §4, §5

[8] = test system: HIV-1MDR/C; format: cell-based; settings: for EC50 (μM), HIV-1MDR/C (SI): PHA-PBMCs, p24 Gag; for n-fold change of EC50, HIV-1MDR/C: compared to wild-type HIV-1ERS104pre
Experimental: as §3, §4, §5

[9] = test system: HIV-1MDR/G; format: cell-based; settings: for EC50 (μM), HIV-1MDR/G (SI): PHA-PBMCs, p24 Gag; for n-fold change of EC50, HIV-1MDR/G: compared to wild-type HIV-1ERS104pre
Experimental: as §3, §4, §5

[10] = test system: HIV-1MDR/TM; format: cell-based; settings: for EC50 (μM), HIV-1MDR/TM (SI): PHA-PBMCs, p24 Gag; for n-fold change of EC50, HIV-1MDR/TM: compared to wild-type HIV-1ERS104pre
Experimental: as §3, §4, §5

[11] = test system: HIV-1216-P50; assay: microbe, parasite or virus in culture; format: cell-based, HIV-1; settings: for EC50: Human immunodeficiency virus 1, MT4, read-out: EC50 (μM), HIV-1216-p50; for n-fold change in EC50, HIV-1216-p50: compared to wild-type HIV-1NL4-3
Experimental: Briefly, MT-2 cells (2×10^4/ml) were exposed to 100 50% tissue culture infectious doses (TCID50S) of HIV-1LAI, in the presence or absence of various concentrations of drugs in 96-well microculture plates and were incubated at 37° C. for 7 days. After 100 μl of the medium was removed from each well, 3-(4,5-dimetylthiazol-2-yl)-2,5-diphenyltetrazolium bromide (MTT) solution (10 μl, 7.5 mg/ml in phosphate-buffered saline) was added to each well in the plate, followed by incubation at 37° C. for 3 h. […] All assays were performed in duplicate or triplicate. […] To determine the drug susceptibility of certain laboratory HIV-1 strains, MT-4 cells were used as target cells. In brief, MT-4 cells (10^5/ml) were exposed to 100 TCID50S of drug-resistant HIV-1 strains in the presence or absence of various concentrations of drugs and on day 7 of culture, the supernatant was harvested and the amounts of p24 Gag protein were determined. […] All assays were performed in duplicate or triplicate.
Numbers in parentheses represent n-fold changes in EC50s for each isolate compared to the EC50s for wild-type HIV-1NL4-3.

[12] = Human immunodeficiency virus 1, MT4, read-out: EC50 (μM), HIV-1NL4-3, Table 7, mean ± 1 SD
[13] = Human immunodeficiency virus 1, MT4, read-out: EC50 (μM), HIV-1NL4-3, Table 9, mean ± 1 SD

## COc1ccc2c(c1)OCCCC=CCCCCN(CC(O)C(Cc1ccccc1)NC(=O)OC1COC3OCCC13)S2(=O)=O (stereo not drawn) [Compound 14b]
[1]
  EC50: 0.004 ± 0.001 µM
  Selectivity Index: 8,280
[2]
  EC50: 0.018 ± 0.013 µM
[3]
  EC50: 0.025 ± 0.002 µM
[4]
  CC50: 33100 ± 2500 nM
[5]; [12]
  EC50: 0.009 ± 0.0006 µM
[5]; [13]
  EC50: 0.006 ± 0.005 µM
[6]; listed as GRL-286
  EC50 (μM), HIV-1ERS104pre (wild-type SI): 0.007 µM and 0.007 ± 0.002 µM
[7]
  EC50 (μM), HIV-1MDR/B (SI): 0.089 ± 0.016 µM
  n-fold change of EC50, HIV-1MDR/B: (13)
[8]
  EC50 (μM), HIV-1MDR/C (SI): 0.029 ± 0.001 µM
  n-fold change of EC50, HIV-1MDR/C: (4)
[9]
  EC50 (μM), HIV-1MDR/G (SI): 0.028 ± 0.004 µM
  n-fold change of EC50, HIV-1MDR/G: (4)
[10]
  EC50 (μM), HIV-1MDR/TM (SI): 0.072 ± 0.014 µM
  n-fold change of EC50, HIV-1MDR/TM: (10)
[11]
  EC50: 0.19 ± 0.06 µM
  n-fold change in EC50, HIV-1216-p50: (32)

## CCC[C@@]1(CCc2ccccc2)CC(O)=C([C@H](CC)c2cccc(NS(=O)(=O)c3ccc(C(F)(F)F)cn3)c2)C(=O)O1 [TPV, Tipranavir]
[1]
  EC50: 0.17 ± 0.005 µM
  Selectivity Index: 320
[2]
  EC50: 0.3 ± 0.15 µM
[3]
  EC50: 0.33 ± 0.07 µM
[5]; [12]
  EC50: 0.32 ± 0.07 µM
[5]; [13]
  EC50: 0.29 ± 0.05 µM
[6]
  EC50 (μM), HIV-1ERS104pre (wild-type SI): 0.12 ± 0.03 µM
[7]
  EC50 (μM), HIV-1MDR/B (SI): 0.18 ± 0.009 µM
  n-fold change of EC50, HIV-1MDR/B: (2)
[8]
  EC50 (μM), HIV-1MDR/C (SI): 0.38 ± 0.079 µM
  n-fold change of EC50, HIV-1MDR/C: (3)
[9]
  EC50 (μM), HIV-1MDR/G (SI): 0.24 ± 0.08 µM
  n-fold change of EC50, HIV-1MDR/G: (2)
[10]
  EC50 (μM), HIV-1MDR/TM (SI): 0.38 ± 0.05 µM
  n-fold change of EC50, HIV-1MDR/TM: (3)
[11]
  EC50: 0.029 ± 0.0004 µM
  n-fold change in EC50, HIV-1216-p50: (0.1)

## COc1ccc2c(c1)OCCC=CCCCCN(CC(O)C(Cc1ccccc1)NC(=O)OC1COC3OCCC13)S2(=O)=O (stereo not drawn) [Compound 14c]
[1]
  EC50: 0.002 ± 0.001 µM
[2]
  EC50: 0.01 ± 0.007 µM
[3]
  EC50: 0.017 ± 0.001 µM
[4]
  CC50: 48800 ± 1300 nM
[5]; [12]
  EC50: 0.005 ± 0.001 µM
[5]; [13]
  EC50: 0.004 ± 0.001 µM
[11]
  EC50: 0.094 µM
